Data reported in PubChem BioAssay AID248 (DTP/NCI, 2004).
Several values for one entry are separate records, joined by “and”; a condition that tells them apart may be missing. Equal values may be shown once. Inconclusive results and toxic doses are left out.

System: L1210 leukemia ip in BDF1 mice, survival T/C
Experiment: NCI In Vivo Anticancer Drug Screen. Data for tumor model L1210 Leukemia (intraperitoneal) in B6D2F1 (BDF1) mice
Settings: endpoint: mean survival time, higher = longer survival
Procedure, shortened: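 Transplantable tumor model; survival measured in treated vs vehicle control mice. Value = treated/control.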

[1] = dose: 100.0 mg/kg/injection, schedule: Q04DX002 (ip), vehicle: saline with Tween-80
[2] = dose: 400.0 mg/kg/injection, schedule: Q04DX002 (ip), vehicle: saline with Tween-80
[3] = dose: 400.0 mg/kg/injection, schedule: Q04DX003 (ip), vehicle: saline with Tween-80
[4] = dose: 400.0 mg/kg/injection, schedule: Q04DX003 (ip), vehicle: saline
[5] = dose: 100.0 mg/kg/injection, schedule: Q04DX002 (ip), vehicle: Klucel (hydroxypropylcellulose) (HPC)
[6] = dose: 200.0 mg/kg/injection, schedule: Q04DX002 (ip), vehicle: Klucel (hydroxypropylcellulose) (HPC)
[7] = dose: 400.0 mg/kg/injection, schedule: Q04DX002 (ip), vehicle: Klucel (hydroxypropylcellulose) (HPC)
[8] = dose: 100.0 mg/kg/injection, schedule: Q04DX003 (ip), vehicle: saline with Tween-80
[9] = dose: 100.0 mg/kg/injection, schedule: Q01DX001 (ip), vehicle: carboxymethylcellulose (CMC)
[10] = dose: 100.0 mg/kg/injection, schedule: Q01DX001 (ip), vehicle: Klucel (hydroxypropylcellulose) (HPC)
[11] = dose: 200.0 mg/kg/injection, schedule: Q01DX001 (ip), vehicle: Klucel (hydroxypropylcellulose) (HPC)
[12] = dose: 400.0 mg/kg/injection, schedule: Q01DX001 (ip), vehicle: Klucel (hydroxypropylcellulose) (HPC)
[13] = dose: 100.0 mg/kg/injection, schedule: Q01DX009 (ip), vehicle: saline
[14] = dose: 200.0 mg/kg/injection, schedule: Q01DX009 (ip), vehicle: saline
[15] = dose: 400.0 mg/kg/injection, schedule: Q01DX009 (ip), vehicle: saline
[16] = dose: 100.0 mg/kg/injection, schedule: Q04DX003 (ip), vehicle: Klucel (hydroxypropylcellulose) (HPC)
[17] = dose: 200.0 mg/kg/injection, schedule: Q04DX003 (ip), vehicle: Klucel (hydroxypropylcellulose) (HPC)
[18] = dose: 400.0 mg/kg/injection, schedule: Q04DX003 (ip), vehicle: Klucel (hydroxypropylcellulose) (HPC)

CN(C)N=Nc1ccc(S(=O)(=O)Nc2ncccn2)cc1
T/C [1]: 114 % of control | T/C (dose: 264.0 mg/kg/injection, schedule: Q04DX003 (ip), vehicle: saline with Tween-80): 100 % of control | T/C [2]: 177 % of control | T/C [3]: 105 % of control | T/C [4]: 176 % of control | T/C (dose: 600.0 mg/kg/injection, schedule: Q04DX003 (ip), vehicle: saline): 124 % of control

O=C(Nc1ccc(NC(=O)Nc2cccc(C3=NCCCN3)c2)cc1)Nc1ccc(C2=NCCCN2)cc1
T/C (dose: 1.25 mg/kg/injection, schedule: Q01DX Z (ip), vehicle: carboxymethylcellulose (CMC)): 102 % of control | T/C (dose: 2.5 mg/kg/injection, schedule: Q01DX Z (ip), vehicle: carboxymethylcellulose (CMC)): 109 % of control | T/C (dose: 5.0 mg/kg/injection, schedule: Q01DX Z (ip), vehicle: carboxymethylcellulose (CMC)): 113 % of control | T/C (dose: 8.5 mg/kg/injection, schedule: Q01DX Z (ip), vehicle: carboxymethylcellulose (CMC)): 170 % of control | T/C (dose: 10.0 mg/kg/injection, schedule: Q01DX Z (ip), vehicle: carboxymethylcellulose (CMC)): 167 % of control | T/C (dose: 15.0 mg/kg/injection, schedule: Q01DX Z (ip), vehicle: carboxymethylcellulose (CMC)): 157 % of control | T/C (dose: 17.0 mg/kg/injection, schedule: Q01DX Z (ip), vehicle: carboxymethylcellulose (CMC)): 151 % of control | T/C (dose: 50.0 mg/kg/injection, schedule: Q01DX Z (oral), vehicle: carboxymethylcellulose (CMC)): 102 % of control | T/C (dose: 100.0 mg/kg/injection, schedule: Q01DX Z (oral), vehicle: carboxymethylcellulose (CMC)): 107 % of control | T/C (dose: 200.0 mg/kg/injection, schedule: Q01DX Z (oral), vehicle: carboxymethylcellulose (CMC)): 104 % of control | T/C (dose: 400.0 mg/kg/injection, schedule: Q01DX Z (oral), vehicle: carboxymethylcellulose (CMC)): 102 % of control

Cc1nccn1-c1ccc(Cl)cc1N=Cc1ccc(N(CCCl)CCCl)cc1
T/C [5]: 98 % of control | T/C [6]: 102 % of control | T/C [7]: 102 % of control

O=C(CC(O)(c1ccccc1)c1ccccc1)Nc1ccccn1
T/C (dose: 100.0 mg/kg/injection, schedule: Q01DX001 (ip), vehicle: other): 89 % of control | T/C (dose: 200.0 mg/kg/injection, schedule: Q01DX001 (ip), vehicle: other): 89 % of control

ClCCN(CC1C(c2ccccc2)C1c1ccccc1)C1CCCCC1 (configuration not stated)
T/C (dose: 1.5 mg/kg/injection, schedule: Q04DX002 (ip), vehicle: Klucel (hydroxypropylcellulose) (HPC)): 104 % of control | T/C (dose: 3.1 mg/kg/injection, schedule: Q04DX002 (ip), vehicle: Klucel (hydroxypropylcellulose) (HPC)): 92 % of control | T/C (dose: 6.25 mg/kg/injection, schedule: Q04DX002 (ip), vehicle: Klucel (hydroxypropylcellulose) (HPC)): 92 % of control

CCC(=O)Nc1ccc(Cl)c(Cl)c1
T/C [8]: 95 % of control | T/C (dose: 200.0 mg/kg/injection, schedule: Q04DX003 (ip), vehicle: saline with Tween-80): 93 % of control | T/C [3]: 92 % of control

COc1ccc(C(=O)CBr)cc1OC
T/C [9]: 96 % of control

CC1CCC=C2C(=O)C3OC3C(C(C)(C)O)C21C (configuration not stated)
T/C (dose: 100.0 mg/kg/injection, schedule: Q01DX009 (ip), vehicle: acetone): 98 % of control | T/C [8]: 90 % of control | T/C (dose: 200.0 mg/kg/injection, schedule: Q01DX009 (ip), vehicle: acetone): 96 % of control | T/C (dose: 400.0 mg/kg/injection, schedule: Q01DX009 (ip), vehicle: acetone): 100 % of control | T/C [3]: 93 % of control

Nc1nc2ncc(CNc3ccc(C(=O)NC(CCC(=O)O)C(=O)O)cc3)nc2c(=O)n1N (configuration not stated)
T/C [10]: 98 % of control | T/C [11]: 101 % of control | T/C [12]: 98 % of control

O=C(CC(=O)c1ccccc1)CC(=O)c1ccccc1
T/C [10]: 97 % of control | T/C [11]: 100 % of control | T/C [12]: 94 % of control

O=[N+]([O-])c1cc(Br)cc(Br)c1O
T/C (dose: 25.0 mg/kg/injection, schedule: Q04DX002 (ip), vehicle: Klucel (hydroxypropylcellulose) (HPC)): 109 % of control | T/C (dose: 50.0 mg/kg/injection, schedule: Q04DX002 (ip), vehicle: Klucel (hydroxypropylcellulose) (HPC)): 98 % of control | T/C [5]: 98 % of control and 91 % of control

O=C(O)c1ccc(N2C(=O)c3ccccc3C2=O)cc1[N+](=O)[O-]
T/C [13]: 103 % of control | T/C (dose: 100.0 mg/kg/injection, schedule: Q04DX003 (ip), vehicle: saline): 100 % of control | T/C [14]: 108 % of control | T/C (dose: 200.0 mg/kg/injection, schedule: Q04DX003 (ip), vehicle: saline): 104 % of control | T/C [15]: 107 % of control | T/C [4]: 107 % of control

O=C(Nc1ccc([N+](=O)[O-])cn1)Nc1ccccc1F
T/C [10]: 92 % of control | T/C (dose: 100.0 mg/kg/injection, schedule: Q01DX009 (ip), vehicle: Klucel (hydroxypropylcellulose) (HPC)): 101 % of control and 90 % of control | T/C [16]: 99 % of control | T/C [11]: 89 % of control | T/C (dose: 200.0 mg/kg/injection, schedule: Q01DX009 (ip), vehicle: Klucel (hydroxypropylcellulose) (HPC)): 100 % of control and 87 % of control | T/C [17]: 105 % of control | T/C [12]: 92 % of control | T/C (dose: 400.0 mg/kg/injection, schedule: Q01DX009 (ip), vehicle: Klucel (hydroxypropylcellulose) (HPC)): 101 % of control and 90 % of control | T/C [18]: 99 % of control

CCC(F)C(Br)C(=O)O (configuration not stated)
T/C [1]: 101 % of control | T/C (dose: 200.0 mg/kg/injection, schedule: Q04DX002 (ip), vehicle: saline with Tween-80): 93 % of control | T/C [2]: 87 % of control

COC(=O)C1C2c3ccccc3C(C1C(=O)OC)[n+]1ccccc12 (configuration not stated)
T/C [16]: 95 % of control | T/C [17]: 98 % of control

CC(=O)Nc1ccc(CCCCc2c(C)nc(NC(C)=O)[nH]c2=O)cc1
T/C [10]: 91 % of control | T/C [11]: 89 % of control

O=[N+]([O-])c1c[nH]c2ncnc(SCc3ccccc3)c12
T/C [9]: 87 % of control | T/C (dose: 200.0 mg/kg/injection, schedule: Q01DX001 (ip), vehicle: carboxymethylcellulose (CMC)): 93 % of control | T/C (dose: 400.0 mg/kg/injection, schedule: Q01DX001 (ip), vehicle: carboxymethylcellulose (CMC)): 91 % of control

CC(=O)NC(=O)NC(=O)CC#N
T/C [10]: 90 % of control | T/C [11]: 88 % of control | T/C [12]: 93 % of control

O=C(NNc1ccccc1OCc1ccccc1)C(F)(F)F
T/C (dose: 100.0 mg/kg/injection, schedule: Q01DX001 (ip), vehicle: saline with Tween-80): 100 % of control | T/C (dose: 200.0 mg/kg/injection, schedule: Q01DX001 (ip), vehicle: saline with Tween-80): 103 % of control | T/C (dose: 400.0 mg/kg/injection, schedule: Q01DX001 (ip), vehicle: saline with Tween-80): 95 % of control

CCOC1C(=O)c2ccccc2CCN1S(=O)(=O)c1ccc(C)cc1 (configuration not stated)
T/C (dose: 100.0 mg/kg/injection, schedule: Q01DX001 (ip), vehicle: saline): 96 % of control | T/C [13]: 101 % of control | T/C (dose: 200.0 mg/kg/injection, schedule: Q01DX001 (ip), vehicle: saline): 100 % of control | T/C [14]: 95 % of control | T/C (dose: 400.0 mg/kg/injection, schedule: Q01DX001 (ip), vehicle: saline): 103 % of control | T/C [15]: 94 % of control

CC(C)OC(=O)Nc1cccnc1
T/C [5]: 92 % of control | T/C [6]: 98 % of control | T/C [7]: 103 % of control

COc1ccc2c(CSc3ncnc4nc[nH]c34)cc(=O)oc2c1
T/C [6]: 94 % of control | T/C [7]: 94 % of control

CCOC(OCC)C(O)CNc1ccc([N+](=O)[O-])cc1[N+](=O)[O-] (configuration not stated)
T/C [16]: 98 % of control | T/C [17]: 101 % of control | T/C [18]: 103 % of control

CC(=O)NC1CCC(C(C)(C)C)CC1 (configuration not stated)
T/C (dose: 100.0 mg/kg/injection, schedule: Q01DX009 (ip), vehicle: saline with Tween-80): 102 % of control | T/C [5]: 93 % of control | T/C (dose: 200.0 mg/kg/injection, schedule: Q01DX009 (ip), vehicle: saline with Tween-80): 108 % of control | T/C [6]: 90 % of control | T/C [7]: 103 % of control

CC1(C)OCC(CO)(Nc2nc(N3CC3)nc(N3CC3)n2)CO1
T/C (dose: 0.31 mg/kg/injection, schedule: Q01DX009 (ip), vehicle: saline): 105 % of control | T/C (dose: 0.62 mg/kg/injection, schedule: Q01DX009 (ip), vehicle: saline): 111 % of control | T/C (dose: 2.5 mg/kg/injection, schedule: Q01DX009 (ip), vehicle: saline): 152 % of control and 168 % of control | T/C (dose: 7.5 mg/kg/injection, schedule: Q01DX009 (ip), vehicle: saline): 101 % of control
